Reference: patent US20240299345A1, “GINKGOLIDE B AND ITS DERIVATIVES FOR INHIBITING AND/OR REVERSING AGING” (CHINA MEDICAL UNIVERSITY, priority 2023, published 2024)

Tests used:
[1] = tested on: 6-month-old female C57BL/6 mice; assay: GB in 6-month-old adult mice (steady state): osteocalcin, myofiber CSA, grip strength; format: in vivo, mouse; conditions: 6-month-old female mice
Protocol: (§1) Forelimb grip strength was measured by a grip strength meter (Muromachi Kikai Co., Tokyo, Japan). Each mouse performed five trials for force measurement, and the values were normalized to body and recorded. A rotarod test was carried out by using the rotarod treadmill (Singa Technology Corporation, Taoyuan City, Taiwan). The speed was adjusted to 4 rpm for 4 sec, 10 rpm for 10 sec, 20 rpm for 20 sec, and then 40 rpm until the mice fell. Mice were familiarized with the rotarod and balance beam by running 5 min for three consecutive days before the onset of experimentation. During the experiment, each mouse performed four trials, and the average time that each rodent was able to stay on top of the rotarod treadmill was recorded. The balance beam test was used to assess subtle motor coordination and balance. After initial training, mice were given four consecutive trials where they were required to cross 60 cm of a round beam (14 mm in diameter). The time for crossing the beam and the number of hind-feet slip were recorded. Hanging endurance was determined by Kondziella's inverted hanging screen test. Mice were putted at the center of grasped wire screen (bar thickness, 2 mm; mesh, 10 mm). After inverting the wire screen, the time of sustained limb tension on the screen were recorded. A fixed maximum hanging limit of 600 seconds was used. Each trial was repeated three times at 30-min interval, the mean values were recorded.
Serum was collected by cardiac puncture upon sacrifice.
The maintenance of muscle mass and strength in adulthood reduces the risk of sarcopenia and improves healthspan. Osteocalcin is necessary to maintain muscle mass and health throughout the whole life, and loss of osteocalcin after the age of 30 leads to muscle loss. Since GB increased osteocalcin in aged osteoblasts, we postulated that oral GB administration could increase osteocalcin and skeletal muscle mass in mice. In a proof-of-principle experiment, we gave GB to 6-month-old female mice equivalent to 30-year-old women for two months (FIG. 1A). […] GB administration enlarged the CSA of the tibialis anterior and soleus muscles (FIGS. 1C to 1E, p=0.021 and <0.0001, respectively) and increased forelimb grip strength (FIG. IF, p=0.036).

[2] = tested on: 20-month-old aged female C57BL/6 mice; assay: Physical functional analysis (grip strength, rotarod, hanging, balance beam) in aged mice; format: in vivo, mouse
Protocol: as §1

[3] = tested on: ovariectomized (OVX) female C57BL/6 mice; assay: Postmenopausal (OVX, estrogen-deficient) mouse model: muscle wasting and physical activity; format: in vivo
Protocol: as §1

[4] = tested on: GA muscle nuclei; assay: Single-nucleus RNA sequencing of GA muscle; format: in vivo, mouse
Protocol: Single-nucleus isolation was performed as previously described 41. GA muscles were isolated from mice immediately following euthanasia. The muscles were minced and homogenized with homogenization buffer, 0.25M sucrose and 1% BSA diluted in Mg^2+-free, Ca^2+-free, RNase-free PBS (#AM9624, Invitrogen, Grand Island, NY, USA). The homogenates were incubated with 2.5% Triton-X100/RNase-free PBS at a 1:6 ratio for five minutes. After being filtered through a 100-um strainer, samples were centrifuged at 3000×g for 10 min at 4° C., resuspended in 2% BSA/RNase-free PBS, and then filtered through a 40-μm strainer again. Nuclei were labeled by DAPI with 0.2 U/μL RNase inhibitor (#N8080119, Thermo Fisher Scientific). Labeled nuclei were sorted by FACS Aria II Cell Sorter with 70 μm nozzle (BD Biosciences, San Jose, CA, USA) into 2% BSA/RNase-free PBS with RNase inhibitor. Isolated nuclei were observed by confocal fluorescent microscope (Leica TCS SP8, Wetzlar, Germany) to confirm integrity. To adjust the optimal concentration of nuclei for the 10X Chromium system, isolated nuclei were counted and diluted or concentrated by centrifugation at 250×g for 5 min at 4° C. Single-nucleus RNA-sequencing libraries were constructed by the Chromium Single Cell 3′ reagent kit v2 (10X Genomics, Pleasanton, CA, USA) per the manufacturer's protocol. Following the library preparation, the libraries were sequenced on the NovaSeq 6000 System (Illumina, San Diego, CA, USA) and the 10x Genomics cellranger count pipeline produced 6072 single-nucleus transcriptomes (2128, 2015 and 1929 transcriptomes for Young+Vehicle, Aged+Vehicle, and Aged+GB groups) with 25453, 27,741, and 34,120 reads per nuclei, and 1018, 923, and 1061 genes per nuclei for Young+Vehicle, Aged+Vehicle, and Aged+GB groups respectively.
The single-cell feature-barcode matrices from 10x Genomics cellranger count pipeline were imported into R version 4.1.3 and processed with Seurat 4.2.0. Next, ambient RNA was corrected by SoupX package43. […] Cell cycle genes were corrected for as described in Seurat's Cell-Cycle Scoring and Regression vignette. […] All remaining single-nuclei of each sample were then processed with dimension reduction and Louvain clustering as per Seurat's standard vignette. A combined Seurat object was also created following Seurat's integration protocol as described in Seurat's scRNA-seq integration using default parameters. Dimension reduction and clustering were also performed on the combined dataset as described above. Clusters were annotated using established cell type markers. […]

[5] = GB 3 and 12 mg/kg daily for two months

## CC1C(=O)OC2C(O)C34C5CC(C(C)(C)C)C36C(OC(=O)C6O)OC4(C(=O)O5)C12O (centres unmarked) [GB, Ginkgolide B]
[1]; GB 12 mg/kg daily oral 2 months vs vehicle, p<0.0001
  CSA of the soleus muscle: enlarged
[1]; GB 12 mg/kg daily oral 2 months vs vehicle, p=0.021
  CSA of the tibialis anterior muscle: enlarged
[1]; GB 12 mg/kg daily oral 2 months vs vehicle, p=0.036
  forelimb grip strength: increased
[1]; GB 12 mg/kg daily oral gavage 2 months vs vehicle, p=0.0114
  circulating osteocalcin: significantly higher
[2]; GB 12 mg/kg daily oral 2 months vs vehicle-aged, p<0.01
  grip strength: higher
[2]; GB 2 months vs vehicle-aged, p<0.0001
  duration of hanging: prolonged duration
[2]; GB 2 months vs vehicle-aged, p<0.05
  duration on the rotarod: prolonged duration
[2]; GB 2 months, p<0.001
  balance beam: latency to cross: decreased
  balance beam: number of foot slips: reduced
[3]; [5]
  myofiber CSA: dose-dependently restored
  skeletal muscle mass: dose-dependently restored
[3]; high-dose GB, two months
  decline of motor performance: fully reversed
  forelimb grip strength: improved
[4]; 8/14 nuclear types, GA muscle of aged mice
  reversal of aging-related changes in nucleus proportion: 57%
[4]; GA muscle of aged mice
  expression levels of Runx1 in myonucleus and number of aging-elicited Runx1+ Type 2b myonuclei: reduced
[4]; covering all 5 myonucleus subclusters altered by aging
  aging-related changes in the numbers and proportion of myonuclei: reversed
[4]; particularly M2 and M2-like proliferating macrophages
  number of Ptprc+ immune cells in skeletal muscle: increased
